Experimental data from article PMC8175350, “Drug repurposing screens identify chemical entities for the development of COVID-19 interventions” (Nature Communications, 2021).
“And” between values parts separate entries of the source, which are not always exact repeats. Identical values can stand only once. Counter-ions that a name gives are not always drawn. Like-named read-outs stand apart in the source and are kept apart here.

What was measured:
[1] = system: SARS-CoV-2; assay: microbe, parasite or virus in culture; type: cell-based; conditions: for Emax: Severe acute respiratory syndrome coronavirus 2, HeLa-ACE2, 24 h, curve-fit effect at infinite concentration, average, read-out: HeLa-ACE2 CoV-2 Sinf Average; for EC50: Severe acute respiratory syndrome coronavirus 2, HeLa-ACE2, read-out: HeLa-ACE2 CoV-2 EC50 GeoMean
[2] = Uninfected HeLa-ACE2 24 h live/dead cytotoxicity counter screen; type: cell-based, human; conditions: human, uninfected HeLa-ACE2 cells
[3] = system: HeLa-ACE2 cells; assay: as above; type: cell-based, human; conditions: for HeLa-ACE2 uninfected cytotoxicity Sinf Average: curve-fit effect at infinite concentration; for HeLa-ACE2 uninfected cytotoxicity Sinf Average (%): Sinf average of the curves
[4] = system: SARS-CoV-2; assay: microbe, parasite or virus in culture; type: cell-based; conditions: for Emax: Severe acute respiratory syndrome coronavirus 2, Calu-3, 48 h; for EC50: read-out: Calu-3 CoV-2 EC50 GeoMean
[5] = system: HeLa-ACE2 cells; assay: cells; conditions: Homo sapiens; for Emax: HeLa-ACE2, 24 h, read-out: HeLa-ACE2 cell count Sinf Average
[6] = system: Calu-3 cells; assay: cells; conditions: Homo sapiens; for Emax: Calu-3, 48 h
[7] = in vitro; conditions: human
[8] = system: Calu-3 cells; assay: Uninfected Calu-3 48 h Cell-Titer Glo cytotoxicity counter screen; conditions: for Calu-3 uninfected cytotoxicity Sinf Average: curve-fit effect at infinite concentration; for Calu-3 uninfected cytotoxicity Sinf Average (%): Sinf average of the curves
[9] = system: Calu-3 cells
[10] = system: SARS-CoV-2; type: cell-based
[11] = uninfected cells, Fig. 2b group, read-out: HeLa-ACE2 CC50
[12] = unrounded geometric mean, read-out: HeLa-ACE2 uninfected cytotoxicity CC50 GeoMean
[13] = curve-fit effect at infinite concentration, average, read-out: Calu-3 CoV-2 Sinf Average
[14] = Severe acute respiratory syndrome coronavirus 2, Calu-3, unrounded geometric mean
[15] = HeLa-ACE2, read-out: HeLa-ACE2 cell count EC50 GeoMean, unrounded geometric mean
[16] = read-out: Calu-3 cell count Sinf Average
[17] = Calu-3, read-out: Calu-3 cell count EC50 GeoMean, unrounded geometric mean
[18] = Calu-3 uninfected cytotoxicity CC50 GeoMean, unrounded geometric mean
[19] = geometric mean of replicates, read-out: HeLa-ACE2 uninfected cytotoxicity CC50 GeoMean
[20] = Sinf average of the curves, read-out: Calu-3 CoV-2 Sinf Average (%)
[21] = Severe acute respiratory syndrome coronavirus 2, Calu-3, geometric mean of replicates
[22] = HeLa-ACE2, read-out: HeLa-ACE2 cell count EC50 GeoMean (µM), geometric mean of replicates
[23] = read-out: Calu-3 cell count Sinf Average (%)
[24] = Calu-3, read-out: Calu-3 cell count EC50 GeoMean (µM), geometric mean of replicates
[25] = Calu-3 uninfected cytotoxicity CC50 GeoMean (µM), geometric mean of replicates

Molecule | Emax [1] [%] | EC50 ([1]; unrounded geometric mean) [nM] | CC50 at 24 h [2, 11] [nM] | CC50 at 24 h [2, 12] [nM] | HeLa-ACE2 uninfected cytotoxicity Sinf Average [3] [%] | Emax [4, 13] [%] | EC50 [4, 14] [nM] | Emax [5] [%] | EC50 [5, 15] [µM] | Emax [6, 16] [%] | EC50 [6, 17] [µM] | CC50 [7, 18] [µM] | Calu-3 uninfected cytotoxicity Sinf Average [8] [%] | further results
CC(=O)O[C@H]1C[C@H](O[C@H]2[C@@H](O)C[C@H](O[C@H]3[C@@H](O)C[C@H](O[C@H]4CC[C@@]5(C)[C@H](CC[C@@H]6[C@@H]5C[C@@H](O)[C@]5(C)[C@@H](C7=CC(=O)OC7)CC[C@]65O)C4)O[C@@H]3C)O[C@@H]2C)O[C@H](C)[C@H]1O[C@@H]1O[C@H](CO)[C@@H](O)[C@H](O)[C@H]1O [Lanatoside C] | 97 | 206 | ≤ 3000 | 1350 | -101 | 86 | 194 | 96 | 0.379 | -33 | > 9.98 | > 6.21 | -28 | –
Cn1c(C#N)ccc1-c1ccc2c(c1)C(C)(C)OC(=S)N2 [Tanaproget] | 49 | 141 | ≤ 3000 | 128 | -50 | 87 | 2440 | 100 | > 9.59 | 98 | > 9.98 | – | -100 | uninfected Calu-3 CC50 [9]: > 19.278 ×÷ 2.07 (n=3) μM; CC50 at 48 h ([7]; Calu-3 uninfected cytotoxicity CC50 GeoMean): > 19.3 µM
C=C(C)[C@]12C[C@@H](C)[C@@]34O[C@](Cc5ccccc5)(O[C@@H]1[C@@H]3C=C(COC(=O)Cc1ccc(O)c(OC)c1)C[C@]1(O)C(=O)C(C)=C[C@@H]41)O2 [Resiniferatoxin] | 75 | > 1300 | – | 7170 | -100 | 80 | 903 | 100 | > 8.34 | 75 | > 2.87 | 17.3 | -100 | –
COC(=O)[C@@]12OC[C@]34[C@H]([C@@H](O)[C@@H]1O)[C@@]1(C)CC(=O)C(O)=C(C)[C@@H]1C[C@H]3OC(=O)[C@H](OC(=O)/C=C(\C)C(C)C)[C@@H]24 [Bruceantin] | 98 | 5.78 | ≤ 3000 | < 117 | -100 | 99 | 19.4 | 99 | 0.0968 | -100 | > 6.92 | 0.973 | -53 | –
CC[C@H]1CN2CCc3cc(OC)c(OC)cc3[C@@H]2C[C@@H]1C[C@H]1NCCc2cc(O)c(OC)cc21 [Cephaeline] | 99 | 16.8 | ≤ 3000 | 212 | -100 | 96 | 142 | 107 | 0.309 | 100 | > 6.92 | > 4.96 | -68 | –
N6-isopentenyladenosine [Riboprine] | – | – | – | – | – | – | – | – | – | – | – | – | – | interaction with remdesivir [10]: synergistic (key: additive: Additive effect: -10< δ <10; synergistic effect: δ >10; antagonistic eff ect: δ <10); maximal efficacy [10]: 100%
CC[C@@H]1/C=C/C=C/C[C@H](C)[C@@H](O)[C@](C)(O)C(=O)[C@H](C)[C@@H](O)[C@H](C)C(=O)[C@H](C)[C@@H](O)[C@H](C)/C=C/C(=O)O[C@H]2[C@@H](C)[C@@H](CC1)O[C@]1(O[C@H](C[C@H](C)O)[C@H](C)CC1=O)[C@@H]2C [Oligomycin B] | – | > 9590 | – | 22000 | -100 | 93 | < 5.39 | 100 | > 8.16 | 50 | > 0.311 | > 24.5 | -89 | –
CO[C@H]1C[C@H](O[C@H]2CC[C@]3(C=O)[C@H]4CC[C@]5(C)[C@@H](C6=CC(=O)OC6)CC[C@]5(O)[C@@H]4CC[C@]3(O)C2)O[C@H](C)[C@H]1O [Cymarine] | 93 | 237 | ≤ 3000 | 287 | -95 | 87 | 135 | 100 | 0.311 | -100 | > 9.98 | > 5.87 | -40 | –
CCCCCCCCCCCCCC(=O)O[C@@H]1[C@@H](C)[C@@]2(O)[C@@H](C=C(CO)C[C@]3(O)C(=O)C(C)=C[C@@H]23)[C@@H]2C(C)(C)[C@]12OC(C)=O [Phorbol 12-myristate 13-acetate] | 40 | – | ≤ 3000 | > 201 | -58 | 59 | 16.2 | – | > 9.59 | 100 | > 9.98 | 22.5 | -100 | –
CC(C)(C)c1ccc(CSc2cnn(C(C)(C)C)c(=O)c2Cl)cc1 [Pyridaben] | – | – | – | – | – | – | – | – | – | – | – | – | – | EC50 ([1]; geometric mean of replicates): > 9590 nM; CC50 at 24 h [2, 19]: > 39800 nM; Emax [4, 20]: 93%; EC50 [4, 21]: 205 nM; EC50 [5, 22]: > 9.59 µM; Emax [6, 23]: 47%; EC50 [6, 24]: 0.345 µM; CC50 [7, 25]: > 8.99 µM; Calu-3 uninfected cytotoxicity Sinf Average (%) [8]: -94%
Nc1nc(N)c2nc(CCc3ccc(C(=O)N[C@@H](CCC(=O)O)C(=O)O)cc3)cnc2n1 [10-deazaaminopterin] | – | – | – | – | – | – | – | – | – | – | – | – | – | interaction with remdesivir ([10]; ZIP model): synergistic (synergistic effect: δ >10); dose-response point, normalized infected cells ([10]; alone, Concentration [uM] -9.01818): 8.312 and 15.4845 and 9.998; maximal efficacy ([10]; compound alone): 40%; maximal efficacy ([10]; with EC2 of remdesivir): ~65%; maximal efficacy ([10]; with EC24 of remdesivir): > 80%
O=C(Nc1ccc(Cl)c(S(=O)(=O)N2CCNCC2)c1O)Nc1cccc(F)c1Cl [Elubrixin tosylate] | – | – | – | – | – | – | – | – | – | – | – | – | – | EC50 ([1]; geometric mean of replicates): > 9590 nM; CC50 at 24 h [2, 19]: > 39800 nM; HeLa-ACE2 uninfected cytotoxicity Sinf Average (%) [3]: -100%; Emax [4, 20]: 100%; EC50 [4, 21]: 6910 nM; EC50 [5, 22]: > 9.59 µM; Emax [6, 23]: 67%; EC50 [6, 24]: > 9.98 µM; CC50 at 48 h [7, 25]: > 29.6 µM; Calu-3 uninfected cytotoxicity Sinf Average (%) [8]: -100%
CCOc1ccc(Cc2nc3cc(N(C)S(=O)(=O)c4cccs4)ccc3n2CC2CCCCC2)nc1 [AZ-11713908] | – | – | – | – | – | – | – | – | – | – | – | – | – | EC50 ([1]; geometric mean of replicates): > 9590 nM; CC50 at 24 h [2, 19]: > 33000 nM; HeLa-ACE2 uninfected cytotoxicity Sinf Average (%) [3]: -100%; Emax [4, 20]: 93%; EC50 [4, 21]: 3530 nM; EC50 [5, 22]: > 9.59 µM; Emax [6, 23]: 100%; EC50 [6, 24]: > 9.73 µM; CC50 [7, 25]: > 29.9 µM; Calu-3 uninfected cytotoxicity Sinf Average (%) [8]: -95%
